The values that follow come from patent US6875760B2 (Novo Nordisk A/S, priority 1999, dated 2005).

For one assay, the target named is T1, cloned human glucagon receptor (Homo sapiens, UniProt P47871).
T1 construct: expressed in transfected cells; plasma membrane preparation
T1 sequence (P47871 26-477): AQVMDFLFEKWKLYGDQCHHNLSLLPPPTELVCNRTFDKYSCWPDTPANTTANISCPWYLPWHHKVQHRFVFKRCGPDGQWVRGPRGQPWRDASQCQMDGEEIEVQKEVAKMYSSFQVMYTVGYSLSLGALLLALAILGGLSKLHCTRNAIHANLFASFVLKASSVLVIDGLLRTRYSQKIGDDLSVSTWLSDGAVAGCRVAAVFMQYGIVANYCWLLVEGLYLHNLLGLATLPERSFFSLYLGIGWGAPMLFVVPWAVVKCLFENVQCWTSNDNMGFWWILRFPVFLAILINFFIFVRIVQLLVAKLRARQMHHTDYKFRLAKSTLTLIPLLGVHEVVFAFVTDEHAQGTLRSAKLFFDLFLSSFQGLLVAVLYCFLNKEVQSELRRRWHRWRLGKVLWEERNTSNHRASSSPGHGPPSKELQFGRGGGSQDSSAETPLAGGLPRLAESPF
The assay can be described thus: Glucagon Binding Assay (II).
Conditions: not given
Here is the method: Binding of compounds to the glucagon receptor was determined in a competition binding assay using the cloned human glucagon receptor.
The receptor inserted in the pLJ6′ expression vector using EcoRI/SSt1 restriction sites (Lok et al.) was expressed in a baby hamster kidney cell line (A3 BHK 570-25).
The homogenate was resuspended and centrifuged again. The final precipitate containing the plasma membranes was suspended in buffer and stored at −80° C. until use.
Binding assays were carried out in duplicate in polypropylene tubes or microtiter plates. The buffer used in this assay was 50 mM HEPES pH 7.4 containing 5 mM EGTA, 5 mM MgCl2 and 0.005% Tween 20. Sample (glucagon (Bachem CA) or test compounds) was added to each tube or well. Tracer (˜25.000 cpm) was diluted in buffer and was added to each tube or well. 0.5 mg freshly thawed plasma membrane protein diluted in buffer was then added in aliquots to each tube or well. Tubes or plates were incubated at 37° C. for 1 hour. Non-specific binding was determined with 10^−7 M of glucagon. Bound tracer and unbound tracer were then separated by vacuum filtration. The tubes or wells were washed twice with 0.01% Triton X-100 buffer. Scintillation fluid was added to the plates and radioactivity was quantified using a scintillation counter.
Regarding `CC(C)CC1CCC(N(Cc2ccc(C(=O)NCCC(=O)O)cc2)C(=O)Nc2ccc(OC(F)(F)F)cc2)CC1` (stereo not drawn), the IC50 worked out at 140 nM.
Turning to `CC(C)c1ccc(NC(=O)N(Cc2ccc(C(=O)NCCC(=O)O)cc2)C2CCC(C(C)(C)C)CC2)cc1` (stereo not drawn) [drawing 1170], the IC50 came to 35 nM.

The same assay, now with this note: plasma membranes of BHK cells expressing the receptor; read-out: Glu Bd Assay (II) IC50.
Take `O=C(O)CCNC(=O)c1ccc(CN(C(=O)Nc2ccc(OC(F)(F)F)cc2)C2Cc3ccccc3C2)cc1` [Example 137, 3-{4-[1-(1-Indan-2-yl)-3-(4-trifluoromethoxyphenyl)ureidomethyl]benzoylamino)propionic acid]: the IC50 stood at 360 nM.
As to `CC(C)(C)[C@H]1CC[C@@H](N(Cc2ccc(C(=O)NCCC(=O)O)cc2)NC(=O)c2ccc(F)c(F)c2)CC1` [Example 589, 3-{4-[N-(cis-4-tert-Butylcyclohexyl)-N′-(3,4-difluorobenzoyl)hydrazinomethyl]benzoylamino}propionic acid], the IC50 amounted to 541 nM.
For the molecule `CC1C(N(Cc2ccc(C(=O)NCCC(=O)O)cc2)C(=O)Nc2cc(Cl)cc(Cl)c2)CC2CC1C2(C)C` (stereo not drawn) [Example 114], the IC50 was 575 nM.
On to `C[C@@H](NC(=O)N(Cc1ccc(C(=O)NCCC(=O)O)cc1)c1ccc(C2CCCCC2)cc1)c1ccc2ccccc2c1` [Example 610, 3-{4-[1-(4-Cyclohexylphenyl)-3-[(1R)-1-(2-naphthyl)ethyl]ureidomethyl]benzoylamino}propionic acid], for which the IC50 turned out to be 118 nM.
Take `CC(C)(C)C1CCC(N(Cc2ccc(OC(F)(F)F)cc2)Cc2ccc(C(=O)NCCC(=O)O)cc2)CC1` (stereo not drawn) [Example 385, 3-(4-{[(4-tert-Butylcyclohexyl)-(4-trifluoromethoxybenzyl)amino]methyl}benzoylamino)propionic acid]: the IC50 was determined as 33 nM.
The same measure, in the same setting: to `Cc1cc(C)c(Cc2ccc(C(=O)NN(Cc3ccc(C(=O)NCCC(=O)O)cc3)c3ccc(C4CCCCC4)cc3)o2)c(C)c1` [Example 592, 3-(4-{N-(4-Cyclohexylphenyl)-N′-[5-(2,4,6-trimethylbenzyl)furan-2-carbonyl]hydrazinomethyl}benzoylamino)propionic acid] belongs 16 nM; to `CC(C)S(=O)(=O)Cc1cccc(NC(=O)N(Cc2ccc(C(=O)Nc3nn[nH]n3)cc2)c2ccc(C3CCCCC3)cc2)c1` [Example 389, 4-{1-(4-Cyclohexylphenyl)-3-[3-(propane-2-sulfonylmethyl)phenyl]ureidomethyl}-N-(2H-tetrazol-5-yl)benzamide], 337 nM.
For the molecule `CC(C)(C)C1CCC(N(Cc2ccc(C(=O)NCCC(=O)O)cn2)C(=O)Nc2ccc(OC(F)(F)F)cc2)CC1` (stereo not drawn) [Example 612, 3-({6-[1-(4-tert-Butylcyclohexyl)-3-(4-trifluoromethoxyphenyl)ureidomethyl]pyridine-3-carbonyl}amino)propionic acid], the IC50 amounted to 161 nM.
Take `Cc1ccc(CN(CCc2ccc(Cl)cc2Cl)Cc2ccc(C(=O)NCCC(=O)O)cc2)cc1` [Example 153]: the 50% inhibitory concentration (IC50) was 454 nM.
`O=C(Nc1nn[nH]n1)c1ccc(CN(C(=O)Nc2ccc3c(c2)OC(F)(F)C(F)(F)O3)c2ccc(C3CCCCC3)cc2)cc1` [Example 396, 4-[1-(4-Cyclohexylphenyl)-3-(2,2,3,3-tetrafluoro-2,3-dihydrobenzo[1,4]dioxin-6-yl)ureidomethyl]-N-(2H-tetrazol-5-yl)benzamide]: the IC50 turned out to be 13 nM.
With `O=C(Nc1nn[nH]n1)c1ccc(CN(C(=O)Nc2cc(Cl)cc(Cl)c2)c2ccc(C3=CCCCC3)cc2)cc1` [Example 593, 4-[1-(4-Cyclohex-1-enylphenyl)-3-(3,5-dichlorophenyl)ureidomethyl]-N-(2H-tetrazol-5-yl)benzamide], the IC50 was 8 nM.
On the same count and under the same terms, with `CC(C)(C)[C@H]1CC[C@H](N(Cc2ccc(C(=O)Nc3nn[nH]n3)cc2)C(=O)Nc2cc(Cl)cc(Cl)c2)CC1` [Example 174, 4-[1-(trans-4-tert-Butylcyclohexyl)-3-(3,5-dichlorophenyl)ureidomethyl]-N-(2H-tetrazol-5-yl)benzamide] the figure was 11 nM; with `O=C(Nc1nn[nH]n1)c1ccc(CN(Cc2ccc(OC(F)(F)F)cc2)[C@H]2CC[C@H](C3CCCCC3)CC2)cc1` [Example 574, 4-({(trans-4-Cyclohexylcyclohexyl)-[4-(trifluoromethoxy)benzyl]amino}methyl)-N-(2H-tetrazol-5-yl)benzamide], 159 nM.

Staying with this assay, now noted: screened at 1 μM; library compounds; read-out: displacement of the glucagon tracer when screened at 1 μM concentration in the glucagon binding assay II.
Consider `O=C(O)CCCOc1ccc(CN(C(=O)Nc2ccc(OC(F)(F)F)cc2)c2ccc(C3CCCCC3)cc2)cc1` [Example 216, 4-{4-[1-(4-Cyclohexylphenyl)-3-(4-trifluoromethoxyphenyl)ureidomethyl]phenoxy}butyric acid], for which the inhibition at 1 µM is more than 50%.
On to `CC(C)(C)C1CCC(N(Cc2ccc(C(=O)Nc3ncnc4[nH]ncc34)cc2)C(=O)Nc2cc(Cl)cc(Cl)c2)CC1` (stereo not drawn) [Example 170, 4-[1-(4-tert-Butylcyclohexyl)-3-(3,5-dichlorophenyl)ureidomethyl]-N-(1H-pyrazolo[3,4-d]pyrimidin-4-yl)benzamide], for which the inhibition at 1 µM is more than 50%.
With `CC(C)(C)C1CCC(N(Cc2ccc(C(=O)NCCC(=O)O)o2)C(=O)Nc2cccc(SC(F)(F)F)c2)CC1` (stereo not drawn) [Example 211, 3-({5-[1-(4-tert-Butylcyclohexyl)-3-(3-trifluoromethylsulfanylphenyl)ureidomethyl]furan-2-carbonyl}amino)propionic acid], the inhibition at 1 µM was more than 50%.
For the molecule `O=C(O)CCNC(=O)c1ccc(CN(Cc2ccc(C(F)(F)F)cc2)C(=O)Nc2ccc(SC(F)(F)F)cc2)cc1` [Example 120, 3-{4-[1-(4-Trifluoromethylbenzyl)-3-(4-trifluoromethylsulfanylphenyl)ureidomethyl]benzoylamino)propionic acid], the inhibition at 1 µM was more than 50%.
Take `Cc1ccc(CN(CCc2ccc(Cl)cc2Cl)Cc2ccc(C(=O)NCCC(=O)O)s2)cc1` [Example 147, 3-(5-{[(2,4-Dichlorophenylethyl)-(4-methylbenzyl)amino]methyl}thiophene-2-carbonylamino)propionic acid]: the inhibition at 1 µM is more than 50%.
In the case of `O=C(O)CCNC(=O)c1ccc(CN(CCc2cccc(Cl)c2)C(=O)Nc2ccc(OC(F)(F)F)cc2)cc1` [Example 180, 3-{4-[1-[2-(3-Chlorophenyl)ethyl]-3-(4-trifluoromethoxyphenyl)ureidomethyl]benzoylamino}propionic acid], the inhibition at 1 µM was more than 50%.
Take `CN(CCN(Cc1ccc(C(=O)NCCC(=O)O)cc1)C(=O)Nc1cccc(SC(F)(F)F)c1)C(=O)OC(C)(C)C` [Example 207, 3-{4-[1-[2-(N-tert-Butoxycarbonyl-N-methylamino)ethyl]-3-(3-trifluoromethylsulfanylphenyl)ureidomethyl]benzoylamino}propionic acid]: the inhibition at 1 µM was more than 50%.
Regarding `O=C(O)CCNC(=O)c1ccc(CN(C(=O)Nc2ccc(Cl)c(C(F)(F)F)c2)c2ccc(C3CCCCC3)cc2)o1` [Example 212, 3-({5-[3-(4-Chloro-3-trifluoromethylphenyl)-1-(4-cyclohexylphenyl)ureidomethyl]furan-2-carbonyl}amino)propionic acid], the inhibition at 1 µM was more than 50%.
In the case of `CC(=O)N1CCc2cc(N(Cc3ccc(C(=O)NCCC(=O)O)cc3)C(=O)Nc3ccc(Cl)c(C(F)(F)F)c3)ccc21` [Example 194, 3-{4-[1-(1-Acetyl-2,3-dihydro-1H-indol-5-yl)-3-(4-chloro-3-trifluoromethylphenyl)ureidomethyl]benzoylamino}propionic acid], the inhibition at 1 µM is more than 50%.

As a reminder, the IC50 is the concentration needed to halve the response being measured.
